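Assay format: 96-well plates, 48-hour exposure. GI50 is the concentration that inhibits growth by half. TGI is the concentration that stops growth completely.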 Where a SMILES comes first, the peptide text is derived from it. [ ]: non-standard residue; d: D form. The star is where a group is joined. ξ: configuration not given here. ξF = NC(Cc1ccccc1)C(=O)O; Cbz = O=C(OCc1ccccc1)*; Aib = CC(C)(N)C(=O)O
Experiments:
Experiment in all cases: growth of human tumour cells (NCI), 48 h
HCC-2998 colon = test system: HCC-2998 colon
IGROV1 ovarian = test system: IGROV1 ovarian
M14 melanoma = test system: M14 melanoma
MALME-3M melanoma = test system: MALME-3M melanoma
MOLT-4 leukemia = test system: MOLT-4 leukemia
NCI-H460 lung = test system: NCI-H460 lung
OVCAR-3 ovarian = test system: OVCAR-3 ovarian
OVCAR-5 ovarian = test system: OVCAR-5 ovarian
SK-OV-3 ovarian = test system: SK-OV-3 ovarian
UO-31 renal = test system: UO-31 renal

Structure (SMILES): CC(=O)ON1C(=O)c2cccc3cccc(c23)C1=O
- TGI (HCC-2998 colon): > 100 µM
- TGI (IGROV1 ovarian): > 100 µM
- TGI (M14 melanoma): 90.9 µM
- TGI (MALME-3M melanoma): 45 µM
- TGI (MOLT-4 leukemia): 43 µM
- TGI (NCI-H460 lung): 41.7 µM
- TGI (OVCAR-3 ovarian): 68.9 µM
- TGI (OVCAR-5 ovarian): > 100 µM
- TGI (SK-OV-3 ovarian): > 100 µM
- TGI (UO-31 renal): > 100 µM

Structure (SMILES): CCOC(=O)CCC(NC(=O)OCc1ccccc1)C(=O)NC(CCC(=O)OCC)C(=O)NNC(=O)OC(C)(C)C (stereo not given)
- TGI (HCC-2998 colon): > 100 µM
- TGI (IGROV1 ovarian): > 100 µM
- TGI (M14 melanoma): > 100 µM
- TGI (MALME-3M melanoma): > 100 µM
- TGI (MOLT-4 leukemia): > 100 µM
- TGI (NCI-H460 lung): > 100 µM
- TGI (OVCAR-3 ovarian): > 100 µM
- TGI (OVCAR-5 ovarian): > 100 µM
- TGI (SK-OV-3 ovarian): > 100 µM
- TGI (UO-31 renal): > 100 µM

Structure (SMILES): c1cncc(O[Si](Oc2cccnc2)(Oc2cccnc2)Oc2cccnc2)c1
- TGI (HCC-2998 colon): > 100 µM
- TGI (IGROV1 ovarian): > 100 µM
- TGI (M14 melanoma): > 100 µM
- TGI (MALME-3M melanoma): > 100 µM
- TGI (MOLT-4 leukemia): > 100 µM
- TGI (NCI-H460 lung): > 100 µM
- TGI (OVCAR-3 ovarian): > 100 µM
- TGI (OVCAR-5 ovarian): > 100 µM
- TGI (SK-OV-3 ovarian): > 100 µM
- TGI (UO-31 renal): > 100 µM

Structure (SMILES): Nc1c(-c2ccccc2[N+](=O)[O-])nc2ccccn12
- TGI (HCC-2998 colon): > 100 µM
- TGI (IGROV1 ovarian): > 100 µM
- TGI (M14 melanoma): > 100 µM
- TGI (MALME-3M melanoma): > 100 µM
- TGI (MOLT-4 leukemia): > 100 µM
- TGI (NCI-H460 lung): > 100 µM
- TGI (OVCAR-3 ovarian): > 100 µM
- TGI (OVCAR-5 ovarian): > 100 µM
- TGI (SK-OV-3 ovarian): > 100 µM
- TGI (UO-31 renal): > 100 µM

Structure (SMILES): C[CH2][Ge]([CH2]C)([CH2]C)[O]C(=O)CCC(=O)[O][Ge]([CH2]C)([CH2]C)[CH2]C
- GI50 (HCC-2998 colon): 90.9 µM
- TGI (HCC-2998 colon): > 100 µM
- GI50 (IGROV1 ovarian): > 100 µM
- TGI (IGROV1 ovarian): > 100 µM
- GI50 (M14 melanoma): > 100 µM
- TGI (M14 melanoma): > 100 µM
- GI50 (MALME-3M melanoma): 79.3 µM
- TGI (MALME-3M melanoma): > 100 µM
- GI50 (MOLT-4 leukemia): 39 µM
- TGI (MOLT-4 leukemia): > 100 µM
- GI50 (NCI-H460 lung): 24.8 µM
- TGI (NCI-H460 lung): > 100 µM
- GI50 (OVCAR-3 ovarian): 66 µM
- TGI (OVCAR-3 ovarian): > 100 µM
- GI50 (OVCAR-5 ovarian): > 100 µM
- TGI (OVCAR-5 ovarian): > 100 µM
- GI50 (SK-OV-3 ovarian): > 100 µM
- TGI (SK-OV-3 ovarian): > 100 µM
- GI50 (UO-31 renal): 87.5 µM
- TGI (UO-31 renal): > 100 µM

Structure (SMILES): COC(=O)C(C)(C)NC(=O)C(Cc1ccccc1)NC(=O)C(C)(C)NC(=O)OCc1ccccc1 (stereo not given) (Cbz-[Aib]-[ξF]-[Aib]-OMe)
- TGI (HCC-2998 colon): > 100 µM
- TGI (IGROV1 ovarian): > 100 µM
- TGI (M14 melanoma): > 100 µM
- TGI (MALME-3M melanoma): > 100 µM
- TGI (MOLT-4 leukemia): > 100 µM
- TGI (NCI-H460 lung): > 100 µM
- TGI (OVCAR-3 ovarian): > 100 µM
- TGI (OVCAR-5 ovarian): > 100 µM
- TGI (SK-OV-3 ovarian): > 100 µM
- TGI (UO-31 renal): > 100 µM

Reference: PubChem BioAssay (NCI)
